Columns and labels:
[1] = Cytotoxicity against human HepDE19 cells; type: toxicity, cell-based
[2] = Cytotoxicity against SRluc-HBc6 cells (unknown origin); type: functional
[3] = Antiviral activity against HBV infected in SRluc-HBc6 cells; type: functional, cell-based; conditions: Hepatitis B virus
[4] = Cytotoxicity against human HePAD38 cells assessed as reduction in cell viability by XTT assay; type: functional
[5] = test system: Hepatitis B virus; assay: Antiviral activity against Hepatitis B virus infected in human HePAD38 cells assessed as inhibition of viral DNA replication by qPCR analysis; type: functional, organism-based
[6] = test system: Hepatitis B virus; assay: Antiviral activity against Hepatitis B virus infected in HepDE19 cells assessed as inhibition of viral replication; type: functional, organism-based
[7] = test system: Hepatitis B virus; assay: Antiviral activity against HBV infected in human HePAD38 cells assessed as reduction in intracellular core HBV DNA replication by Southern blot analysis; type: functional, organism-based
[8] = Cytotoxicity against human HePAD38 cells assessed as reduction in cell viability incubated for 72 hrs by MTT assay; type: functional
[9] = test system: HepG2; assay: Cytotoxicity against human HepG2 cells by XTT assay; type: functional
[10] = test system: Hepatitis B virus; assay: Antiviral activity against Hepatitis B virus assessed as inhibition of HbsAg level
[11] = test system: Hepatitis B virus; assay: Antiviral activity against Hepatitis B virus assessed as inhibition of HbeAg level
[12] = test system: HepG2; assay: Cytotoxicity against human HepG2 cells assessed as reduction in cell viability incubated for 24 hrs by CCK-8 assay; type: functional
[13] = test system: Hepatitis B virus; assay: Antiviral activity against HBV infected in human HepG2 cells assessed as reduction in viral DNA replication; type: functional, organism-based
[14] = test system: Hepatitis B virus; assay: Antiviral activity against HBV infected in human HepG2-hNTCP cells assessed as inhibition of HBsAg formation; type: functional, organism-based
[15] = test system: HepG2; assay: Cytotoxicity against human HepG2 cells assessed as reduction in cell growth; type: functional

Cc1nc2cc(NC(=O)c3ccc(S(=O)(=O)N(C)Cc4ccccc4)cc3)ccc2s1
CC50 [1]: 2.57 µM

O=C(CN(c1cc(C(F)(F)F)ccc1Cl)S(=O)(=O)c1ccccc1)NCc1ccncc1
CC50 [1]: > 50 µM

CC1=C[C@@H]2C(=O)[C@]3(C=C(C)[C@H](O)[C@@]3(O)[C@@H]1O)[C@H](C)C[C@@H]1[C@H]2C1(C)C
CC50 [2]: > 100 µM | EC50 [3]: 8.9 µM

Cc1c(C(=O)Nc2ccccc2)sc(N)c1C(N)=O
CC50 [4]: > 300 µM | EC50 [5]: 3.6 µM

O=C(O)C1CC(OCCOc2ccc(-c3cc(=O)c4cccc(Cl)c4o3)cc2)C1 (configuration not stated)
CC50 [1]: 0.2 µM | EC50 [6]: 0.1 µM

NC(=O)c1ccc(N)nc1 [6-AMINONICOTINAMIDE]
EC50 [7]: 23.9 µM | CC50 [8]: > 500 µM

Cc1cc(C2CCCCC2)n(O)c(=O)c1 [CICLOPIROX]
EC50 [5]: 0.88 µM | CC50 [9]: > 10 µM

C/C=C/C[C@@H](C)[C@@H](O)[C@H]1C(=O)N[C@@H](CC)C(=O)N(C)CC(=O)N(C)[C@@H](CC(C)C)C(=O)N[C@@H](C(C)C)C(=O)N(C)[C@@H](CC(C)C)C(=O)N[C@@H](C)C(=O)N[C@H](C)C(=O)N(C)[C@@H](CC(C)C)C(=O)N(C)[C@@H](CC(C)C)C(=O)N(C)[C@@H](C(C)C)C(=O)N1C [CYCLOSPORINE]
IC50 [10]: 0.372 µM | IC50 [11]: 0.311 µM

O=c1oc2ccccc2c(O)c1Cc1c(O)c2ccccc2oc1=O [DICUMAROL]
CC50 [12]: > 800 µM | EC50 [13]: 100 µM

CCCCC1=NC2(CCCC2)C(=O)N1Cc1ccc(-c2ccccc2-c2nnn[nH]2)cc1 [IRBESARTAN]
EC50 [14]: 35 µM | CC50 [15]: 287 µM

CC(=O)Oc1ccccc1C(=O)Nc1ncc([N+](=O)[O-])s1 [NITAZOXANIDE]
CC50 [12]: 57 µM | EC50 [13]: < 10 µM

CCOC(=O)c1c(CSc2ccccc2)n(C)c2cc(Br)c(O)c(CN(C)C)c12 [UMIFENOVIR]
CC50 [2]: 58.4 µM | EC50 [3]: 2.3 µM
